Data: ChEMBL document CHEMBL1208710, “NF-kappaB inducing kinase (NIK) inhibitors: identification of new scaffolds using virtual screening” (Bioorg Med Chem Lett, 2010)

What was measured:
[1] = molecular target: T1, Mitogen-activated protein kinase kinase kinase 14 (Homo sapiens, UniProt Q99558); experiment: Inhibition of human recombinant GST-fused NIK expressed in Sf9 cells at 50 uM after 60 mins by radiometric protein kinase assay
Target sequence in this assay (Q99558 whole entry, looked up, the tested form may be a part): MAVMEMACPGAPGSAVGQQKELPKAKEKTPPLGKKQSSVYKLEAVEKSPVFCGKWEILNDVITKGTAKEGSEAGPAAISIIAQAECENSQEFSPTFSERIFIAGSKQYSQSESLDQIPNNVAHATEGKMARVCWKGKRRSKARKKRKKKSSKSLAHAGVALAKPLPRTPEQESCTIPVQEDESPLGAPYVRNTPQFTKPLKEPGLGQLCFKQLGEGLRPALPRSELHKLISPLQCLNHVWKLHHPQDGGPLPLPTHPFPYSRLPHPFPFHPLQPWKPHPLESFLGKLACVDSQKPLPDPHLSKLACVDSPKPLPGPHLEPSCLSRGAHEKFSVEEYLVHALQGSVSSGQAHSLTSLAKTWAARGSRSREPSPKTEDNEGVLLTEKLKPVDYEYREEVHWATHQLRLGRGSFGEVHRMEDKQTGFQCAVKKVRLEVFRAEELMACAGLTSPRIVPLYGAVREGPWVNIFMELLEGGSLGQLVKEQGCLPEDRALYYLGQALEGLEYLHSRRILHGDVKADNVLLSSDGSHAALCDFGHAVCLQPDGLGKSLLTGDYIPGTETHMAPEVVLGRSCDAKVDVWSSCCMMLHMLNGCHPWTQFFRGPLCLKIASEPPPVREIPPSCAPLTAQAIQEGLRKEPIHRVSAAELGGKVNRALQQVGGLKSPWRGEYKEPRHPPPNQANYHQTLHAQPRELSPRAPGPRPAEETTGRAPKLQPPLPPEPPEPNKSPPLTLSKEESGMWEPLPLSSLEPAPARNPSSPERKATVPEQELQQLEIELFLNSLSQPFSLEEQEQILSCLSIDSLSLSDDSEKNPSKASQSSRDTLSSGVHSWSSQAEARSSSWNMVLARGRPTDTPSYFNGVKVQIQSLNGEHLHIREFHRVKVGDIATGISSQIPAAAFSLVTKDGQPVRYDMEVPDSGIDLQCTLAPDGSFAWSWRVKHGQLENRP

[2] = molecular target: T1, Mitogen-activated protein kinase kinase kinase 14; experiment: Inhibition of human recombinant GST-fused NIK expressed in Sf9 cells after 60 mins by radiometric protein kinase assay
Target sequence in this assay (Q99558 whole entry, the tested form may be a part): as the sequence (Q99558 whole entry, looked up, the tested form may be a part) above

**Q.** What does the source list for `O=C1Cc2ccccc2C(=O)N1`?
**A.** inhibition [1]: 60%; IC50 [2]: 51 µM

**Q.** How did the inhibition [1] turn out when `O=C1CC2CC(=O)NC(=O)C2C(=O)N1` (stereo unspecified) was run?
**A.** Its inhibition is 53%.

**Q.** And the IC50 [2]?
**A.** The IC50 was 90 µM.

**Q.** `CN(C)c1ccc(CNC(=O)Cn2c(=O)[nH]c(=O)c3ccccc32)cc1` was tested. Which inhibition [1] did it give?
**A.** Its inhibition is < 15%.

**Q.** `CCO/C=C1/C(=O)NC(=O)c2ccccc21` was tested. Which inhibition [1] did it give?
**A.** The inhibition was 44%.

**Q.** What about the IC50 [2] of the same compound?
**A.** The IC50 was > 50 µM.

**Q.** Which inhibition [1] does the source give for `CC(NC(=O)Cn1c(=O)[nH]c(=O)c2ccccc21)c1cccs1` (stereo unspecified) here?
**A.** Its inhibition is < 15%.

**Q.** For `O=C1Cc2ccccc2CN1`, which IC50 [2] is on record?
**A.** Its IC50 is > 100 µM.

**Q.** With `O=C(Cn1c(=O)[nH]c(=O)c2ccccc21)NCc1ccccn1` as the compound, how does the inhibition [1] read?
**A.** Its inhibition is < 15%.

**Q.** With `O=c1[nH]c(=O)c2c(Cl)cc(Cl)cc2[nH]1` as the compound, how does the IC50 [2] read?
**A.** Its IC50 is > 100 µM.

**Q.** What does the source list for `O=C1NC(=O)c2ccccc2/C1=C\c1cccs1`?
**A.** inhibition [1]: 25%; IC50 [2]: > 100 µM

**Q.** Which results are given for `CC1=CC(=O)c2c(O)cccc2C1=O` [PLUMBAGIN]?
**A.** inhibition [1]: 60%; IC50 [2]: > 100 µM

**Q.** With `CCOC(=O)N1CCC(NC(=O)Cn2c(=O)[nH]c(=O)c3ccccc32)CC1` as the compound, how does the inhibition [1] read?
**A.** The inhibition was < 15%.
